This passage reports GI50 results from publication PMC8591201, “Anti-Tumor Activity of AZD4547 Against NTRK1 Fusion Positive Cancer Cells Through Inhibition of NTRKs” (Frontiers in Oncology, 2021).

In general, GI50 refers to the concentration giving 50% growth inhibition.

Assay in all cases: cells
Common to all, as to design: Anti-proliferation, 10-point dose response, CellTiter-Glo luminescence (MTT stated for KM12(Luc)), GI50 fitted in Prism
In general terms: In ATP-based viability assays light output follows the ATP content of the culture.

One test has as its system A549. The settings on record: Homo sapiens, A549, 72 h, read-out: GI50 (µM) a. The procedure:
(§1) To obtain the GI50 value of a substance, cell viability was measured using MTT (G4000, Promega, USA) for KM12(Luc) cell and Cell titer glo (G7572, Promega, USA) for other cell lines. For adherent cells, cells were seeded at 5,000 cells/well in a 96-well plate and treated with a substance one day after cell seeding. For suspension cells, 10,000 cells/well were seeded and the substance was treated after 4 h stabilization of cells. The substance was treated at 10 points of 1:3 serial dilution (0–100 µmol/L) for 72 h. For MTT assay, 15 µL dye solution was added to each well and incubated 4 h at 37°C. 100 µL of solubilization solution was added and followed 1 hr incubation. Absorbance at 570 nm of each well was recorded using EnVision microplate reader (Perkin Elmer). For Cell titer glo assay, Cell titer glo reagent was treated in each well and measured the luminescence by EnVision microplate reader (Perkin Elmer). Viable cells in each well were normalized by using 0.5% DMSO-treated wells (100%). The inhibitor dose−response curve was fitted and GI50 values were calculated using Prism 7.0 software (GraphPad). All assays were performed in duplicate and the standard deviation (SD) was determined from two independent experiments. KM12(Luc) was purchased from the JCRB cell bank. KM12 (Luc) was used within 6 months after purchase and the DNA profiles were confirmed using a short tandem repeat (STR) analysis by the Korean Cell Line Bank. KM12(Luc) cells were maintained in DMEM supplemented with 10% FBS and antibiotics. Parental Ba/F3 cells were purchased from DSMZ and were grown in RPMI1640 supplemented with 10% FBS and antibiotics in the presence of IL3, Transformed Ba/F3 cell lines were grown in the same media without IL3. Cells used in this study were negative for mycoplasma contamination. AN3-CA, HEC1A, U138, 8505C, MKN28, MKN45, A172, A375, Capan-1 HeLa, HEP3B, MCF-7 and MIA-paca-2 cells were maintained in DMEM (Welgene, Korea) supplemented with 10% FBS and antibiotics (Welgene, Korea). Otherwise, all cells were maintained in RPMI (Welgene, Korea) supplemented with 10% FBS and antibiotics (Welgene, Korea). To identify AZD4547 sensitive cell lines other than FGFR-mutant driven cancer cells, GI50 values were determined for AZD4547 against 64 different cancer cell lines, including AN3-CA used as a positive control ( Figure 1A and Table S1 ). […] Also, inhibitory activity of AZD4547 against DDR1 or FLT3 allows suppression of proliferation of U-2-OS and MV4-11 ([43]). Therefore, our attention focused on the inhibitory activity of AZD4547 against KM12(Luc) cell lines which have the TPM3-NTRK1 fusion gene. To exclude the possibility that the anti-proliferation activity of AZD4547 against KM12(Luc) is a common characteristic of FGFR inhibitors, we determined if BGJ398, a representative FGFR inhibitor, is also capable of suppressing proliferation of KM12(Luc) cells ( Figure 1B ).

The test system of another test is AGS. The settings on record: Homo sapiens, AGS, 72 h, read-out: GI50 (µM) a. The procedure:
as §1

For another test, the system named is DU-145. The note with it: Homo sapiens, DU-145, 72 h, read-out: GI50 (µM) a. The procedure:
as §1

A further test deals with HCC-78. The note with it: Homo sapiens, HCC78, 72 h, read-out: GI50 (µM) a. The procedure:
as §1

The next test deals with HCT15. The note with it: Homo sapiens, HCT-15, 72 h, read-out: GI50 (µM) a. The procedure:
as §1

The test system of a further test is HuH-7. The note with it: Homo sapiens, Huh-7, 72 h, read-out: GI50 (µM) a. The procedure:
as §1

The subject of the next test is K-562. The settings on record: Homo sapiens, K562, 72 h, read-out: GI50 (µM) a. The procedure:
as §1

A further test deals with MKN28. The note with it: Homo sapiens, MKN-28, 72 h, read-out: GI50 (µM) a. The procedure:
as §1

The next test concerns MKN45. The settings on record: Homo sapiens, MKN-45, 72 h, read-out: GI50 (µM) a. The procedure: as §1
The test system of the next test is NCI-H23. The settings on record: Homo sapiens, NCI-H23, 72 h, read-out: GI50 (µM) a. The procedure: as §1
A further test concerns SNU484. The settings on record: SNU-484, 72 h, read-out: GI50 (µM) a. The procedure: as §1
Another test deals with U138. The note with it: KM12-Luc, 72 h, read-out: GI50 (µM) a. The procedure: as §1

For the compound `COc1cc(CCc2cc(NC(=O)c3ccc(N4C[C@@H](C)N[C@@H](C)C4)cc3)n[nH]2)cc(OC)c1` [AZD4547], the GI50 with A549 was 11.6 µM; with AGS, 58.1 µM; in the test on DU-145 it was 10.7 µM; in the test with HCC-78 it was 7.17 µM; in the test on HCT15, 15.8 µM; in the test with HuH-7 it was 1.35 µM. For the same compound, the GI50 is 17.1 µM in the test on K-562; 10.9 µM in the test with MKN28; 12 µM in the test on MKN45; 10.8 µM in the test with NCI-H23; 24.6 µM with SNU484; 8.48 µM with U138.
